{"source": "patent US20040191168A1", "about": "“Tumor cell killing by cell cycle checkpoint abrogation combined with Inhibition of the classical mitogen activated protein (map) kinase pathway” (priority 2000, published 2004)", "format_in_all_cases": "cell-based, human", "key": {"[1]": {"test_system": "U937 cells", "test": "Morphological assessment of apoptosis (Wright-Giemsa cytospins) in U937 cells", "settings": "U937 cells; for apoptosis (cell death): UCN-01 150 nM, FIG. 1A", "protocol": "Experimental Format. All of the experiments were performed using logarithmically growing cells (3-5×10^5 cells/ml). Cell suspensions were placed in sterile 25 cm^2 T-flasks (Corning, Corning, N.Y.) and incubated with MEK or PKC inhibitors for 30 min at 37° C. At the end of this period, UCN-01 (or in some cases, caffeine) was added to the suspension, and the flasks were placed in 37° C./5% CO2 incubator at various intervals, generally 18 h. In some studies, the p38 MAP kinase inhibitor SB203580 was added concurrently with MEK inhibitors. After drug treatment, cells were harvested and subjected to further analysis as described below.\nAnalysis of Apoptosis. […] For each condition, 5 to 10 randomly selected fields/condition were evaluated, encompassing at least 500 cells (Vrana and Grant, 2001). To confirm the results of morphological analysis, in some cases cells were also evaluated by TUNEL staining (Gorczyca et al., 1993) and assessment of oligonucleosomal DNA fragmentation of total DNA. DNA fragmentation was analyzed by 1.8% agarose gel electrophoresis as described previously (Jarvis et al., 1994). For TUNEL staining, cytocentrifuge preparations were obtained and fixed with 4% formaldehyde. The slides were treated with acetic acid/ethanol (1:2), stained with terminal transferase reaction mixture containing terminal transferase reaction buffer, 0.25 units/ ml terminal transferase, 2.5 mM CoCl2, and 2 pmol fluorescein-12-dUTP (Boehringer Mannheim, Indianapolis, Ind.), and visualized using fluorescence microscopy."}, "[2]": {"test_system": "U937 cells", "test": "Soft agar clonogenic assay in U937 cells", "settings": "agents alone, UCN-01 150 nM, PD184352 10 μM, 18 h", "protocol": "Clonogenic Assay and Cell Proliferation Assays. Colony formation after drug treatment was evaluated using a soft agar cloning assay as described previously (Blasina et al, 1999). Briefly, cells were washed three times with serum-free RPMI medium. Subsequently, 500 cells/well were mixed with RPMI medium con-taining 20% FBS and 0.3% agar and plated on 12-well plates (three wells/ condition). The plates were then transferred to a 37° C./5% CO2, fully humid-ified incubator. After 10 days of incubation, colonies, consisting of groups 5 of 50 cells, were scored using an Olympus Model CK inverted microscope, and colony formation for each condition was calculated in relation to values obtained for untreated control cells. For cell viability assays, CellTiter 96 AQueous One Solution (Promega, Madison, Wis.) was used according to the manufacturer's instructions, and the absorbance at 490 nm was recorded using a 96-well plate reader (Molecular Devices, Sunnyvale, Calif.)."}, "[3]": {"test_system": "U937 cells", "test": "Cell cycle analysis (propidium iodide flow cytometry) in U937 cells", "settings": "18 h, UCN-01 150 nM, PD184352 10 μM, FIG. 3A", "protocol": "(§1) Cell Cycle Analysis and S-phase Content. Cells (2×10^6) were pelleted at 4° C., resuspended, fixed at 4° C. with 67% ethanol overnight, and treated on ice with a propidium iodide solution containing 3.8 mM Na citrate, 0.5 mg/ml RNase A (Sigma Chemical Co.), and 0.01 mg/ml propidium iodide (Sigma Chemical Co.) for 3 h. Cell cycle analysis was performed by flow cytometry using Verity Winlist software (Topsham, Me.). Incorporation of BrdUrd was monitored to evaluate S-phase content. For each condition, 2 3 10 6 cells (cell density 5 5 3 10 5 /ml) were incubated with […] BrdUrd for 30 min at 37° C. After washing twice with 1% BSA/PBS, the cells were resuspended in 70% ethanol and fixed for 30 min on ice. The BrdUrd-labeled cells were denatured and nuclei released by incubation with 2 N HCl/0.5% Triton X-100 for 30 min at room temperature. After centrifugation, the pellet was resuspended in 0.1 M […] (pH 8.5) to neutralize the acid. […] After washing once with 0.5% Tween 20/1% BSA/PBS, the cells were resuspended in PBS containing […] propiditun iodide and analyzed by flow cytometry. The percentage of S-phase cells was determined by measuring BrdUrd FITC-positive part in a dot plot of FL-3 (red fluorescence) against FL-1 (green fluorescence)."}, "[4]": {"test_system": "U937 cells", "test": "S-phase content by BrdUrd incorporation in U937 cells", "settings": "12 and 18 h, UCN-01 150 nM, PD184352 10 μM, FIG. 3B", "protocol": "as §1"}, "[5]": {"test_system": "MAPK/ERK", "test": "p42 MAPK immune complex kinase assay in carcinoma cells", "settings": "MCF7, MDA-MB-231, T47D and DU145 cells; UCN-01 150 nM; MEK1/2 inhibitors (PD98059 25 μM, PD184352 10 μM, U0126 5 μM) given with UCN-01", "protocol": "Immunoprecipitations from Lysates. Fifty microliters of Protein A agarose (Ag) slurry (25 μl bead volume) was washed twice with 1 ml PBS containing 0.1% (v/v) Tween 20, and resuspended in 0.1 ml of the same buffer. Antibodies (2 μg, 20 μl), serum (20 μl) were added to each tube and incubated (3 h, 4° C.). For pre-conjugated antibodies,10 μl of slurry (4 μg antibody) was used. Clarified equal aliquots of lysates (0.25 ml, 100 μg total protein) were mixed with Ag-conjugated antibodies in duplicate using gentle agitation (2.5 h, 4° C.). Ag-antibody-antigen complexes were recovered by centrifugation, the supernatant discarded, and washed (10 min) sequentially with 0.5 ml buffer A (twice), PBS and buffer B [25 mM Hepes, pH 7.4, 0.1 mM Na3VO4].\nAssay of p42^MAPK activity. Immunoprecipitates were incubated (final volume 50 μl ) with 50 μl of buffer B containing 0.2 mM [γ-^32P]ATP (5000 cpm/pmol), 1 μM Microcystin-LR, 0.5 mg/ml myelin basic protein NP), which initiated reactions at time=0. After 20 min., 40 μl of the reaction mixtures were spotted onto a 2 cm circle of P81 paper (Whatman, Maidstone, England) and immediately placed into 180 mM phosphoric acid. Papers were washed four times (10 min each) with phosphoric acid, and once with acetone, and ^32P-incorporation into MBP was quantified by liquid scintillation spectroscopy."}}, "note": "Where “and” joins values, the source holds several entries; their conditions need not be identical. Equal values may be shown once."}
{"smiles": "O=C(NOCC1CC1)c1ccc(F)c(F)c1Nc1ccc(I)cc1Cl", "note": "[PD184352]", "values": [{"measurement": "Apoptotic cells (%)", "setting": "[1]; 18 h, PD184352 10 μM, GFX 1 μM, safingol 2 μM, mean ± SD", "value": "1.8 ± 0.1% and 2.1 ± 0.1%"}, {"measurement": "apoptosis (cell death)", "setting": "[1]; 18 h, PD184352 10 μM", "value": 10, "unit": "%"}, {"measurement": "reduction of clonogenic survival (colony formation)", "setting": "[2]", "value": 40, "unit": "%"}, {"measurement": "cell cycle distribution", "setting": "[3]", "value": "little effect on the cell cycle distribution"}, {"measurement": "number of BrdUrd-positive (S-phase) cells", "setting": "[4]", "value": "modest decline"}, {"measurement": "MAPK/ERK activity (immune complex kinase assay)", "setting": "[5]", "value": "opposed"}]}
{"smiles": "CN[C@@H]1C[C@H]2O[C@@](C)([C@@H]1OC)n1c3ccccc3c3c4c(c5c6ccccc6n2c5c31)C(=O)N[C@H]4O", "note": "[UCN-01, 7-hydroxystaurosporine]", "values": [{"measurement": "apoptosis (cell death)", "setting": "[1]; 18 h, PD184352 10 μM", "value": 10, "unit": "%"}, {"measurement": "percentage of apoptotic cells", "setting": "[1]; 24 hr, 100 nM UCN-01, 10 μM LY294002, FIG. 14", "value": "about 20%"}, {"measurement": "reduction of clonogenic survival (colony formation)", "setting": "[2]", "value": "very modest effect"}, {"measurement": "cell cycle distribution", "setting": "[3]", "value": "primarily depleted the G2 M population"}, {"measurement": "number of BrdUrd-positive (S-phase) cells", "setting": "[4]", "value": "no effect"}, {"measurement": "MAPK/ERK activity (immune complex kinase assay)", "setting": "[5]", "value": "activation of MAPK/ERK was observed"}]}
